Experimental data taken from paper PMC11040352, “CD38‐Specific Gallium‐68 Labeled Peptide Radiotracer Enables Pharmacodynamic Monitoring in Multiple Myeloma with PET” (Advanced Science, 2024).
Like-named read-outs stand apart in the source and are kept apart here.

Columns and labels:
[1] = Ex vivo biodistribution in mice with U266 tumor xenografts; conditions: both sexes, NSG, mouse, 60 min p.i., U266 xenograft mice; for tissue uptake at 1 h: 50 µCi; for tissue to tissue ratio at 1 h: 50 uCi, total radioactivity
Procedure: Animal studies were performed under Johns Hopkins University Animal Care and Use Committee (ACUC‐approved protocol (Principal investigator: Sridhar Nimmagadda, Ph.D. and Protocol number M021M175). Male and female NSG mice (5‐6 weeks old) were used to establish xenografts by administering 3 million cells (50% Corning Matrigel) subcutaneously to form various tumor models within 3–4 weeks. Imaging or biodistribution studies (n = 3–5) were conducted on mice with tumor volumes of 100–200 mm^3. Disseminated tumor models were developed by injecting 4–5 million cells in saline intravenously for MOLP8 and MM1S‐Luc models (n = 4–5). Luciferase expressing MM1S cell line (MM1S‐Luc) was used to monitor cancer cell dissemination in the body. Tumor establishment was confirmed by injecting D‐Luciferin intraperitoneally (150 mg kg^−1) and imaged mice after 10 min in IVIS bioluminescence imaging system. Bone marrow tumors were ready for imaging after 25–30 d of implantation.
Mice with 100–200 mm^3 tumor volume were used for ex vivo biodistribution studies. For radiotracer pharmacokinetics studies, mice with MOLP8 tumor xenografts received ≈80 µCi (2.96 MBq) [^68Ga]Ga‐AJ206 and were sacrificed at pre‐determined time points (5, 30, 60 and 120 min). Similarly, for dosimetry study, mice with MM1S tumor xenografts received ≈80 µCi (2.96 MBq) of [^68Ga]Ga‐AJ206 and were sacrificed at pre‐determined time points (5, 30, 60, 90 and 120 min). All other mice were injected with ≈50µCi (1.85 MBq) [^68Ga]Ga‐AJ206 and were sacrificed at 60 min. The selected tissues were collected, weighed, counted, and their %ID g^−1 values calculated for biodistribution analysis. The tissues included blood, muscle, tumor, thymus, heart, lung, liver, pancreas, stomach, small intestine, large intestine, spleen, adrenals, kidney, bladder, femur, and brain.

[2] = Octanol/PBS partition coefficient (LogD, pH 7.4); type: physicochemical
Procedure: Partition coefficients, logD (pH7.4) value, were determined according to a literature procedure.^[ [46] ^] Briefly, a 10 µL solution of [^68Ga]Ga‐AJ206 (around 10 µCi) was added to a solution of 1‐octanol (200 µL) mixed with phosphate buffered saline (PBS) (190 µL) in a 1.5 mL centrifuge tube. After the mixture was vigorously shaken and vortexed, it was centrifuged at 3000 rpm for 5 min. Aliquots (10 µL) were removed from the two phases, and the radioactivity was measured on an automated gamma counter (1282 Compugamma CS, Pharmacia/LKB Nuclear, Inc., Gaithersburg, MD). The logD was calculated as the average log ratio value of the radioactivity in the 1‐octanol fraction and the PBS fraction from the four samples.

CC[C@H](C)[C@@H]1NC(=O)[C@@H]2CCCN2C(=O)[C@H](Cc2ccccc2)NC(=O)[C@H](CC(=O)O)NC(=O)[C@H](C)NC(=O)[C@@H]2CSCc3cc(cc(c3)CSC[C@H](NC(=O)[C@H](C)NC(=O)CCOCCOCCOCCNC(=O)CN3CCN(CC(=O)O)CCN(CC(=O)O)CC3)C(=O)N[C@@H](C(C)C)C(=O)N3CCC[C@H]3C(=O)N2)CSC[C@@H](C(N)=O)NC(=O)[C@H](Cc2ccc(O)cc2)NC(=O)[C@H](Cc2c[nH]c3ccccc23)NC1=O [[^68Ga]Ga‐AJ206, metal not drawn]
tissue uptake at 1 h ([1]; blood, read-out: uptake in blood): 0.32 ± 0.06 %ID/g | tissue uptake at 1 h ([1]; femur, read-out: uptake in femur): 0.13 ± 0.02 %ID/g | tissue uptake at 1 h ([1]; heart, read-out: uptake in heart): 0.15 ± 0.02 %ID/g | tissue uptake at 1 h ([1]; kidney, read-out: uptake in kidney): 21.5 ± 2.68 %ID/g | tissue uptake at 1 h ([1]; liver, read-out: uptake in liver): 0.78 ± 0.06 %ID/g | tissue uptake at 1 h ([1]; lung, read-out: uptake in lung): 0.42 ± 0.04 %ID/g | tissue uptake at 1 h ([1]; muscle, read-out: uptake in muscle): 0.08 ± 0.01 %ID/g | tissue uptake at 1 h ([1]; small intestine, read-out: uptake in small intestine): 0.16 ± 0.01 %ID/g | tissue uptake at 1 h ([1]; spleen, read-out: uptake in spleen): 0.24 ± 0.01 %ID/g | tissue uptake at 1 h ([1]; stomach, read-out: uptake in stomach): 0.39 ± 0.3 %ID/g | tissue uptake at 1 h ([1]; tumor, read-out: uptake in tumor): 0.25 ± 0.03 %ID/g | tissue to tissue ratio at 1 h ([1]; tumor/blood, read-out: Tumor/Blood ratio): 0.83 ± 0.09 | tissue to tissue ratio at 1 h ([1]; tumor/muscle, read-out: Tumor/Muscle ratio): 3.43 ± 0.28 | logD [2]: -1.32 ± 0.08
